Measured values: PubChem BioAssay (NCI)
Values joined by “and” are separate entries in the source; they are usually repeats but may differ in a detail not shown here. Equal values may be shown once.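 Exposure lasted 48 hours, with cells grown in 96-well plates and compounds tested at five concentrations. GI50 = concentration required for 50% inhibition of growth. Definition used: TGI = concentration required for complete inhibition of growth.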

Experiments:
Experiment in all cases: inhibition of tumour cell growth, NCI panel, 48 h
HCT-15 colon = tested on: HCT-15 colon
HOP-62 NSCLC = tested on: HOP-62 NSCLC
KM12 colon = tested on: KM12 colon
RXF 393 renal = tested on: RXF 393 renal
SK-MEL-5 melanoma = tested on: SK-MEL-5 melanoma
SN12C renal = tested on: SN12C renal
IGROV1 ovarian = tested on: IGROV1 ovarian
MDA-MB-231 breast = tested on: MDA-MB-231 breast
OVCAR-5 ovarian = tested on: OVCAR-5 ovarian
T-47D breast = tested on: T-47D breast

Row | SMILES | TGI (HCT-15 colon) [µM] | TGI (HOP-62 NSCLC) | TGI (KM12 colon) | TGI (RXF 393 renal) [µM] | TGI (SK-MEL-5 melanoma) | TGI (SN12C renal) | TGI (IGROV1 ovarian) | TGI (MDA-MB-231 breast) [µM] | TGI (OVCAR-5 ovarian) [µM] | TGI (T-47D breast) [µM] | GI50 (HCT-15 colon) | GI50 (HOP-62 NSCLC) | GI50 (IGROV1 ovarian) [µM] | GI50 (KM12 colon) [µM] | GI50 (MDA-MB-231 breast) [µM] | GI50 (OVCAR-5 ovarian) | GI50 (RXF 393 renal) [µM] | GI50 (SK-MEL-5 melanoma) [µM] | GI50 (SN12C renal) [µM]
1 | COc1cccc(NC(=O)CSc2nnc(-c3ccc(N=Cc4ccc(Cl)cc4)cc3)o2)c1 | 33.8 | > 100 µM | 31.3 µM | 34 | 34.6 µM | 43 µM | – | – | – | – | – | – | – | – | – | – | – | – | –
2 | CC[C@]12C=CCN3CCC4(c5cc(N=Nc6ccccc6)c(OC)cc5N(C)[C@H]4[C@@](O)(C(=O)OC)[C@@H]1OC(C)=O)[C@@H]32 (stereo partly specified) | 34.4 | 35.2 µM | 37.7 µM | 30.9 | 44.2 µM | 35.7 µM | 32.5 µM | 31.6 | 41.1 | – | – | – | – | – | – | – | – | – | –
3 | Cc1cccc(C(C)(C)C)c1NC(=O)/C(Cc1nc2ccc([N+](=O)[O-])cc2[nH]c1=O)=N/NC(=O)C[N+](C)(C)C | > 100 | – | > 100 µM | – | > 100 µM | > 100 µM | > 100 µM | > 100 | > 100 | > 100 | – | – | – | – | – | – | – | – | –
4 | COc1cc([C@@H]2c3cc4c(cc3[C@@H](NC(=O)c3ccc(N)cc3)C3COC(=O)[C@@H]32)OCO4)cc(OC)c1O (stereo partly specified) | 32 | 3.95 µM | 13.8 µM | 67.6 | 21.6 µM | 4.54 µM | 20.2 µM | – | 34.5 | – | – | – | – | – | – | – | – | – | –
5 | N#Cc1c(NC(=O)c2ccccc2)sc2c1CCC(=O)C2 | 2.39 | > 100 µM | 5.22 µM | 3.65 | 3.22 µM | 7.51 µM | 11 µM | 6.28 | 4.77 | – | 0.395 µM | 2.55 µM | 1.59 | 0.711 | 1.99 | 1.25 µM | 1.17 | 1.65 | 1.16
6 | NC(Cc1cc(I)c(O)c(I)c1)C(=O)O (stereo unspecified) | > 362 | > 500 µM | > 500 µM | 449 | > 500 µM | > 500 µM | > 500 µM | – | > 500 | – | – | – | – | – | – | – | – | – | –
7 | CCOC(=O)c1nc2c3c(ncn2n1)Oc1c(c(-c2ccccc2)nn1-c1ccccc1)C3c1ccc(Cl)cc1 (stereo unspecified) | > 100 | > 100 µM | > 100 µM | > 100 | > 100 µM | > 100 µM | – | > 100 | > 100 | > 100 | – | – | – | – | – | – | – | – | –
8 | COc1cc2cc(C(=O)N3CC(CCl)c4c3cc(N)c3ccccc43)[nH]c2cc1OCCN(C)C (stereo unspecified) | 5.45 | 0.00741 µM | 0.0116 µM | < 0.005 | – | 0.5 µM | 0.00522 µM | 0.0173 | 16.3 | 0.0394 | – | – | – | – | – | – | – | – | –
9 | O=C(Nn1c(-c2ccccc2)nc2ccccc2c1=O)c1ccccn1 | – | > 100 µM | > 100 µM | > 100 | > 100 µM | > 100 µM | > 100 µM | > 100 | – | > 100 | – | – | – | – | – | – | – | – | –
10 | COP(=O)(OC)C(N)CCSC (stereo unspecified) | > 100 | > 100 µM | > 100 µM | – | > 100 µM | > 100 µM | > 100 µM | – | > 100 | – | – | – | – | – | – | – | – | – | –
11 | Cc1nnc2cc(C(=O)O)c3ccccc3n2c1=O | > 10 | > 10 µM | – | > 10 | > 10 µM | > 10 µM | > 10 µM | > 10 | > 10 | > 10 | – | – | – | – | – | – | – | – | –
12 | CCOc1ccc2[nH]c3c(C)c4cc[n+](C)cc4c(C)c3c2c1 | > 100 | 4.76 µM and 6.01 µM | 14.4 µM and 21.6 µM | > 100 | 4.37 µM and 4.31 µM | 1.25 µM and 2.69 µM | 32 µM and > 44.7 µM | – | > 100 | – | 6.05 µM and > 35.6 µM | 0.415 µM and 1.12 µM | – | – | – | 10.3 µM and 38.8 µM | – | – | –
13 | Cc1nc(C)c(C(=O)Nc2cccc3c2C(=O)NC3=O)cc1C(=O)Nc1cccc2c1C(=O)NC2=O | > 100 | > 100 µM | > 100 µM | > 100 | > 100 µM | > 100 µM | > 100 µM | – | > 100 | – | – | – | – | – | – | – | – | – | –
14 | CC1=CC(O)C(O)C2(C)C1CC1OC(=O)C(O)C3C(C)C(O)C4(O)OCC13C42 (stereo unspecified) | > 625 | 348 µM | 389 µM | 51 | 142 µM | > 625 µM | 224 µM | – | > 454 | – | – | – | – | – | – | – | – | – | –
15 | COc1ccc(/C=C2\Cc3ccccc3C2=O)cc1OC | > 100 | > 100 µM | > 100 µM | – | > 100 µM | > 100 µM | > 100 µM | – | > 100 | – | – | – | – | – | – | – | – | – | –
16 | O=S1(=O)NNC(=NCc2ccc(Cl)cc2)c2ccccc21 | > 100 | – | > 100 µM | > 100 | > 100 µM | > 100 µM | > 100 µM | – | > 100 | – | – | – | – | – | – | – | – | – | –
17 | CC(C)(C)N=C1CC(C)(C)c2ccccc2C(=Nc2ccccc2)S1 | > 100 | > 100 µM | > 100 µM | > 100 | 59.2 µM | > 100 µM | > 100 µM | – | > 100 | – | – | – | – | – | – | – | – | – | –
18 | CC1(C)COC(c2cccc(C3=NC(C)(C)CO3)c2Br)=N1 | > 100 | > 100 µM | > 100 µM | > 100 | > 100 µM | – | > 100 µM | > 100 | > 100 | > 100 | – | – | – | – | – | – | – | – | –
19 | CCCCc1c2c(nc3c1CCc1cc4c(nc1-3)-c1nc3c(c(CCCC)c1CC4)CCC/C3=C\c1ccccc1)/C(=C/c1ccccc1)CCC2 | > 100 | > 100 µM | > 100 µM | 65.4 | > 100 µM | > 100 µM | > 100 µM | – | > 100 | – | – | – | – | – | – | – | – | – | –
20 | CS(=O)(=O)OCCN1CCC2(CC1)SSC1(CCN(CCOS(C)(=O)=O)CC1)S2 | > 100 | > 100 µM | > 100 µM | – | > 100 µM | > 100 µM | > 100 µM | > 100 | 93.2 | – | – | – | – | – | – | – | – | – | –
21 | N#Cc1c(Nc2ccc(F)cc2)[n+]([O-])c2ccc(Cl)cc2[n+]1[O-] | 13.3 | 42.2 µM | > 100 µM | 27.3 | 23.1 µM | 13.4 µM | 4.02 µM | 16.7 | – | 38.9 | – | – | – | – | – | – | – | – | –
22 | COc1ccc(C(O)c2ccc3c(c2)OCO3)cc1 (stereo unspecified) | > 100 | > 100 µM | > 100 µM | > 100 | – | > 100 µM | > 100 µM | > 100 | > 100 | > 100 | – | – | – | – | – | – | – | – | –
23 | O=C(c1ccccc1)c1c(C(F)(F)F)n([O-])c2ccccc2[n+]1=O | > 100 | > 100 µM | 3.89 µM | 3.83 | – | – | 0.489 µM | – | – | 2.85 | – | – | – | – | – | – | – | – | –
24 | NC(N)=N/N=C/c1c(-c2ccc([N+](=O)[O-])cc2)nc2sccn12 | 23.7 | – | 1.88 µM | 7.55 | 7.98 µM | 3.2 µM | 36.4 µM | 3.13 | 3.11 | 3.58 | – | – | – | – | – | – | – | – | –
